The source made the active and inactive calls. The rule behind the calls is not given here. Bridge positions count the residues as written; N and C are the ends. Square brackets hold non-standard residues; d marks the D form. Peptide text beside a SMILES is read from it. pGlu = O=C1CC[C@@H](C(=O)O)N1
Assays:
[1] = Inhibition of bovine pancreas trypsin using N-alpha-benzoyl-L-arginine-pnitroanilide substrate preincubated for 15 mins followed by substrate addition and measured after 30 mins; type: tissue-based, Bos taurus
Bos taurus = species on record: Bos taurus; experiment: Inhibition of bovine pancreas trypsin at 0.01 to 8 uM using N-alpha-benzoyl-L-arginine-pnitroanilide substrate preincubated for 15 mins followed by substrate addition and measured after 30 mins; type: tissue-based; settings: dose microM 0.01-8, time 45.0 min

IC50 [1] [nM] | Structure (SMILES) | inhibition (Bos taurus)
400 | CSCC[C@@H]1NC(=O)[C@H](C(C)C)NC(=O)[C@H](CCCCN)NC(=O)[C@@H](NC(=O)[C@H](CCC(N)=O)NC(=O)[C@H](CCC(=O)O)NC(=O)[C@@H]2CCCN2C(=O)[C@H](CC(=O)O)NC(=O)[C@@H](NC(=O)[C@@H](N)CC(N)=O)[C@@H](C)O)CSSC[C@@H](C(=O)N[C@@H](CCC(=O)O)C(=O)N[C@@H](CCCCN)C(=O)N[C@@H](CCC(=O)O)C(=O)N[C@@H](Cc2c[nH]cn2)C(=O)N[C@@H](CC(=O)O)C(=O)O)NC(=O)[C@H](CCC(N)=O)NC(=O)[C@H](CC(=O)O)NC(=O)[C@H](CC(C)C)NC(=O)[C@@H]2CSSC[C@H](NC1=O)C(=O)N[C@@H](Cc1ccc(O)cc1)C(=O)N[C@@H](C)C(=O)N[C@@H](CCC(N)=O)C(=O)N[C@@H](CCCNC(=N)N)C(=O)N[C@@H](Cc1c[nH]cn1)C(=O)N[C@@H](CO)C(=O)N[C@@H](CO)C(=O)N1CCC[C@H]1C(=O)N[C@@H](CCC(=O)O)C(=O)N[C@@H](CC(C)C)C(=O)N[C@@H](CC(C)C)C(=O)N[C@@H](CCCNC(=N)N)C(=O)N[C@@H](CCCNC(=N)N)C(=O)N2 (H-NTDPEQCKVMCYAQRHSSPELLRRCLDQCEKEHD-OH; disulfide 7-29, 11-25) | –
– | CC[C@H](C)[C@H](NC(=O)[C@H](CCC(N)=O)NC(=O)[C@H](CCCNC(=N)N)NC(=O)[C@H](CCCCN)NC(=O)[C@@H]1CCCN1)C(=O)N[C@@H](CCC(=O)O)C(=O)N[C@@H](CCCNC(=N)N)C(=O)N[C@H]1CSSC[C@@H](C(=O)N[C@@H](CCC(=O)O)C(=O)N[C@@H](CCC(=O)O)C(=O)N[C@@H](CCC(N)=O)C(=O)N[C@@H](CCC(=O)O)C(=O)N[C@@H](CCC(=O)O)C(=O)N[C@@H](CCCCN)C(=O)N[C@@H](CCCNC(=N)N)C(=O)NCC(=O)N[C@@H](CCC(N)=O)C(=O)NCC(=O)N[C@@H](CC(=O)O)C(=O)O)NC(=O)[C@H](CCC(N)=O)NC(=O)[C@H](CCCNC(=N)N)NC(=O)[C@H](C(C)C)NC(=O)[C@@H]2CSSC[C@H](NC(=O)[C@H](CCC(=O)O)NC(=O)[C@H](CCC(N)=O)NC(=O)[C@H](CCCCN)NC1=O)C(=O)N[C@@H](CCCNC(=N)N)C(=O)N[C@@H](CCC(=O)O)C(=O)N[C@@H](CO)C(=O)N[C@@H](CCCNC(=N)N)C(=O)N[C@@H](CCC(N)=O)C(=O)NCC(=O)N[C@@H](CCC(=O)O)C(=O)N[C@@H](CCC(N)=O)C(=O)N[C@@H](CCC(N)=O)C(=O)N[C@@H](CCC(=O)O)C(=O)N[C@@H](CCCNC(=N)N)C(=O)N[C@@H](CCC(N)=O)C(=O)N2 (H-PKRQIERCKQECRESRQGEQQERQCVRQCEEQEEKRGQGD-OH; disulfide 8-29, 12-25) | inactive
– | CC[C@H](C)[C@H](NC(=O)[C@H](CCC(=O)O)NC(=O)[C@@H](NC(=O)[C@H](CCC(=O)O)NC(=O)[C@H](CCCCN)NC(=O)[C@@H]1CCC(=O)N1)[C@@H](C)O)C(=O)N[C@H]1CSSC[C@@H](C(=O)N[C@@H](CCC(=O)O)C(=O)N[C@@H](CCC(=O)O)C(=O)N[C@@H](CCCNC(=N)N)C(=O)N[C@@H](CC(C)C)C(=O)N[C@@H](CCCNC(=N)N)C(=O)N[C@@H](CC(=O)O)C(=O)O)NC(=O)[C@H](CCC(=O)O)NC(=O)[C@H](CCC(N)=O)NC(=O)[C@H](CCC(N)=O)NC(=O)[C@@H]2CSSC[C@H](NC(=O)[C@H](Cc3c[nH]c4ccccc34)NC(=O)[C@H](CCC(N)=O)NC(=O)[C@H](CCCNC(=N)N)NC1=O)C(=O)N[C@@H](CCC(N)=O)C(=O)N[C@@H](C(C)C)C(=O)N[C@@H](CCSC)C(=O)N[C@@H](CCCCN)C(=O)N1CCC[C@H]1C(=O)N[C@@H](CCC(N)=O)C(=O)NCC(=O)NCC(=O)N[C@@H](CCC(=O)O)C(=O)N[C@@H](CCC(=O)O)C(=O)N[C@@H](CCC(N)=O)C(=O)N[C@@H](CCCNC(=N)N)C(=O)N[C@@H](CCCNC(=N)N)C(=O)N2 ([pGlu]KETEICRQWCQVMKPQGGEEQRRCQQECEERLRD-OH; disulfide 7-29, 11-25) | inactive

Source: ChEMBL document CHEMBL4699531, “Defining the Familial Fold of the Vicilin-Buried Peptide Family” (J Nat Prod, 2020)
